Laboratory results: publication PMC12892976, “Alkylation-based optimization of antifungal FPPS inhibitors yields a potent, broad-spectrum lipophilic zoledronate derivative” (mBio, 2025)
Converted amounts (≈) assume the structure as drawn.

Assays:
[1] = system: Candida albicans; assay: MIC/MFC broth microdilution (CLSI); assay type: cell-based; settings: Candida albicans SC5314
Protocol: (§1) Antifungal susceptibility was determined by broth microdilution according to the CLSI guidelines described in M27-Ed4 ([16]). […] MFC was determined by back-plating drug-treated cultures from MIC broths onto SDA plates. The MFC was defined as the lowest concentration from which no colonies could be cultured.

[2] = system: Aspergillus fumigatus; assay: checkerboard drug interaction (FICI, MICc); assay type: cell-based;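 note: simplified diagonal checkerboard screen pairing antifungals with FPPS inhibitors against Aspergillus fumigatus, with FICI calculated under the Loewe additivity model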
Protocol: (§2) Drug interactions between antifungals and FPPS inhibitors were investigated using a simplified checkerboard diagonal screening method ([45]). […] FICIs were determined according to the Loewe additivity model ([17]).

[3] = system: Aspergillus flavus; assay: checkerboard drug interaction (FICI, MICc); assay type: cell-based;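 note: simplified diagonal checkerboard screen pairing azole antifungals with FPPS inhibitors, FICI calculated under the Loewe additivity model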
Protocol: as §2

[4] = system: Candida glabrata; assay: MIC/MFC broth microdilution (CLSI); settings: for MIC / MEC: Candida glabrata CBS138 (ATCC 2001);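 for all read-outs here: broth microdilution following CLSI M27-Ed4, MFC taken as the lowest drug level yielding no growth once MIC wells were subcultured on SDA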
Protocol: as §1

[5] = system: Saccharomyces cerevisiae; assay: MIC/MFC broth microdilution (CLSI); assay type: cell-based; settings: Saccharomyces cerevisiae S288c
Protocol: as §1

[6] = system: Candida albicans; assay: checkerboard drug interaction (FICI, MICc); assay type: cell-based;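 note: antifungal plus FPPS inhibitor combinations on Candida albicans tested by a simplified diagonal checkerboard screen, with FICI calculated under the Loewe additivity model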
Protocol: as §2

[7] = system: Candida glabrata; assay: checkerboard drug interaction (FICI, MICc); assay type: cell-based;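 note: simplified diagonal checkerboard screen pairing antifungals with FPPS inhibitors, FICI calculated under the Loewe additivity model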
Protocol: as §2

[8] = system: Saccharomyces cerevisiae; assay: checkerboard drug interaction (FICI, MICc); assay type: cell-based;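 note: simplified diagonal checkerboard screen pairing antifungals with FPPS inhibitors, FICI calculated under the Loewe additivity model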
Protocol: as §2

[9] = system: Candida auris; assay: checkerboard drug interaction (FICI, MICc); assay type: cell-based;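 note: simplified diagonal checkerboard screen pairing antifungals with FPPS inhibitors, with FICI computed under the Loewe additivity model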
Protocol: as §2

[10] = system: Trichophyton rubrum; assay: checkerboard drug interaction (FICI, MICc); assay type: cell-based;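 note: simplified diagonal checkerboard screen pairing azole antifungals with FPPS inhibitors, FICI calculated under the Loewe additivity model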
Protocol: as §2

[11] = system: Aspergillus flavus; assay: MIC/MFC broth microdilution (CLSI); settings: ATCC204304
Protocol: as §1

[12] = system: Aspergillus fumigatus; assay: MIC/MFC broth microdilution (CLSI); settings: ATCC204305
Protocol: as §1

[13] = system: Cryptococcus deuterogattii; assay: checkerboard drug interaction (FICI, MICc); assay type: cell-based;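 note: simplified diagonal checkerboard screen pairing antifungal drugs with FPPS inhibitors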
Protocol: as §2

[14] = system: Paraphyton cookei; assay: checkerboard drug interaction (FICI, MICc);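 note: simplified diagonal checkerboard screen pairing an antifungal with an FPPS inhibitor, FICI computed under the Loewe additivity model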
Protocol: as §2

[15] = system: Cryptococcus neoformans; assay: checkerboard drug interaction (FICI, MICc); assay type: cell-based;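 note: antifungal plus FPPS inhibitor pairs tested against Cryptococcus neoformans by simplified diagonal checkerboard screening, FICI computed under the Loewe additivity model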
Protocol: as §2

[16] = system: Cryptococcus deuterogattii; assay: MIC/MFC broth microdilution (CLSI); settings: for MIC / MEC: Cryptococcus deuterogattii R265;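 for all read-outs here: broth microdilution per CLSI M27-Ed4. MFC is the lowest concentration yielding no colonies when MIC broths are subcultured onto SDA plates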
Protocol: as §1

[17] = system: Cryptococcus neoformans; assay: MIC/MFC broth microdilution (CLSI); settings: for MIC / MEC: Cryptococcus neoformans H99;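 for all read-outs here: susceptibility testing followed the CLSI M27-Ed4 broth microdilution document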
Protocol: as §1

[18] = system: Trichophyton rubrum; assay: MIC/MFC broth microdilution (CLSI); settings: for MIC / MEC: Trichophyton rubrum R-218
Protocol: as §1

[19] = system: eight fungal species; assay: MIC/MFC summary across the eight fungal species of Table 1; assay type: cell-based
Protocol: The antifungal activity of these compounds was evaluated according to CLSI guidelines ([16]).

Structure (SMILES): C[C@@H]1[C@H](O)[C@@H](C)/C=C/C=C/C=C/C=C/C=C/C=C/C=C/[C@H](O[C@@H]2O[C@H](C)[C@@H](O)[C@H](N)[C@@H]2O)C[C@@H]2O[C@](O)(C[C@@H](O)C[C@@H](O)[C@H](O)CC[C@@H](O)C[C@@H](O)CC(=O)O[C@H]1C)C[C@H](O)[C@H]2C(=O)O [AMB, amphotericin B]
- MIC / MEC [1]: 0.25 µg/mL (≈ 0.271 µM)
- antifungal MICc ([2]; in combination with 10-ZOL): 0.125
- antifungal MICc ([2]; in combination with ZOL): 0.25
- antifungal MICc ([3]; in combination with 10-ZOL): 0.5
- antifungal MICc ([3]; in combination with ZOL): 0.25
- MIC / MEC [4]: 0.25 µg/mL (≈ 0.271 µM)
- MIC / MEC [5]: 0.25 µg/mL (≈ 0.271 µM)
- antifungal MICc ([6]; in combination with 10-ZOL): 0.25
- antifungal MICc ([6]; in combination with ZOL): 0.25
- antifungal MICc ([7]; in combination with 10-ZOL): 0.5
- antifungal MICc ([7]; in combination with ZOL): 0.125
- antifungal MICc ([8]; in combination with 10-ZOL): 0.25
- antifungal MICc ([8]; in combination with ZOL): 0.5
- antifungal MICc ([9]; in combination with 10-ZOL): 1
- antifungal MICc ([9]; in combination with ZOL): 2
- antifungal MICc ([10]; in combination with 10-ZOL): 0.5
- antifungal MICc ([10]; in combination with ZOL): 2
- MIC / MEC [11]: 0.5 µg/mL (≈ 0.541 µM)
- MIC / MEC [12]: 0.25 µg/mL (≈ 0.271 µM)
- antifungal MICc ([13]; in combination with 10-ZOL): 0.25
- antifungal MICc ([13]; in combination with ZOL): 0.25
- antifungal MICc ([14]; in combination with 10-ZOL): 1
- antifungal MICc ([14]; in combination with ZOL): 0.25
- antifungal MICc ([15]; in combination with 10-ZOL): 0.5
- antifungal MICc ([15]; in combination with ZOL): 0.5
- MIC / MEC [16]: 0.25 µg/mL (≈ 0.271 µM)
- MIC / MEC [17]: 0.25 µg/mL (≈ 0.271 µM)
- MIC / MEC [18]: 1 µg/mL (≈ 1.08 µM)

Structure (SMILES): CC(=O)N1CCN(c2ccc(OCC3COC(Cn4ccnc4)(c4ccc(Cl)cc4Cl)O3)cc2)CC1 (stereo not shown) [KET, ketoconazole]
- MFC [1]: 0.25 µg/mL (≈ 0.47 µM)
- MIC [1]: 0.0625 µg/mL (≈ 0.118 µM)
- MIC / MEC [1]: 0.06 µg/mL (≈ 0.113 µM)
- antifungal MICc ([2]; in combination with 10-ZOL): 0.25
- antifungal MICc ([2]; in combination with ZOL): 2
- antifungal MICc ([3]; in combination with 10-ZOL): 1
- antifungal MICc ([3]; in combination with ZOL): 2
- MIC / MEC [4]: 0.5 µg/mL (≈ 0.941 µM)
- MFC ([4]; Nakaseomyces glabratus, CBS138): 4 µg/mL (≈ 7.53 µM)
- MIC ([4]; Nakaseomyces glabratus, CBS138): 0.5 µg/mL (≈ 0.941 µM)
- MFC [5]: 8 µg/mL (≈ 15.1 µM)
- MIC [5]: 1 µg/mL (≈ 1.88 µM)
- MIC / MEC [5]: 1 µg/mL (≈ 1.88 µM)
- antifungal MICc ([6]; in combination with 10-ZOL): 0.125
- antifungal MICc ([6]; in combination with ZOL): 0.25
- antifungal MICc ([7]; in combination with 10-ZOL): 0.016
- antifungal MICc ([7]; in combination with ZOL): 0.031
- MFC ([19]; across eight species, read-out: Geometric mean MFC): 6.7 µg/mL (≈ 12.6 µM)
- MIC ([19]; read-out: Geometric mean MIC): 1.3 µg/mL (≈ 2.45 µM)
- antifungal MICc ([8]; in combination with 10-ZOL): 0.25
- antifungal MICc ([8]; in combination with ZOL): 0.25
- antifungal MICc ([9]; in combination with 10-ZOL): 1
- antifungal MICc ([9]; in combination with ZOL): 1
- antifungal MICc ([10]; in combination with 10-ZOL): 1
- antifungal MICc ([10]; in combination with ZOL): 1
- MFC [11]: 8 µg/mL (≈ 15.1 µM)
- MIC [11]: 2 µg/mL (≈ 3.76 µM)
- MIC / MEC [11]: 2 µg/mL (≈ 3.76 µM)
- MFC [12]: 16 µg/mL (≈ 30.1 µM)
- MIC [12]: 4 µg/mL (≈ 7.53 µM)
- MIC / MEC [12]: 4 µg/mL (≈ 7.53 µM)
- antifungal MICc ([13]; in combination with 10-ZOL): 0.063
- antifungal MICc ([13]; in combination with ZOL): 0.5
- antifungal MICc ([14]; in combination with 10-ZOL): 1
- antifungal MICc ([14]; in combination with ZOL): 4
- antifungal MICc ([15]; in combination with 10-ZOL): 0.063
- antifungal MICc ([15]; in combination with ZOL): 0.125
- MFC ([16]; Cryptococcus deuterogattii): 8 µg/mL (≈ 15.1 µM)
- MIC ([16]; Cryptococcus deuterogattii): 4 µg/mL (≈ 7.53 µM)
- MIC / MEC [16]: 4 µg/mL (≈ 7.53 µM)
- MFC ([17]; Cryptococcus neoformans): 4 µg/mL (≈ 7.53 µM)
- MIC ([17]; Cryptococcus neoformans): 0.25 µg/mL (≈ 0.47 µM)
- MIC / MEC [17]: 0.25 µg/mL (≈ 0.47 µM)
- MFC ([18]; Trichophyton rubrum): > 16 µg/mL
- MIC ([18]; Trichophyton rubrum): 4 µg/mL (≈ 7.53 µM)
- MIC / MEC [18]: 4 µg/mL (≈ 7.53 µM)

Structure (SMILES): OC(Cn1cncn1)(Cn1cncn1)c1ccc(F)cc1F [FLC, fluconazole]
- MFC [1]: 4 µg/mL (≈ 13.1 µM)
- MIC [1]: 0.5 µg/mL (≈ 1.63 µM)
- MIC / MEC [1]: 0.5 µg/mL (≈ 1.63 µM)
- effective concentration in combination ([2]; FLC with 10-ZOL added, A. fumigatus): 8 µg/mL
- antifungal MICc ([2]; in combination with 10-ZOL): 8
- antifungal MICc ([2]; in combination with ZOL): 64
- antifungal MICc ([3]; in combination with 10-ZOL): 32
- antifungal MICc ([3]; in combination with ZOL): 64
- MIC / MEC [4]: 4 µg/mL (≈ 13.1 µM)
- MIC ([4]; Nakaseomyces glabratus, CBS138): 4 µg/mL (≈ 13.1 µM)
- MFC [5]: 64 µg/mL (≈ 209 µM)
- MIC [5]: 4 µg/mL (≈ 13.1 µM)
- MIC / MEC [5]: 4 µg/mL (≈ 13.1 µM)
- antifungal MICc ([6]; in combination with 10-ZOL): 1
- antifungal MICc ([6]; in combination with ZOL): 2
- antifungal MICc ([7]; in combination with 10-ZOL): 1
- antifungal MICc ([7]; in combination with ZOL): 0.25
- antifungal MICc ([8]; in combination with 10-ZOL): 1
- antifungal MICc ([8]; in combination with ZOL): 1
- antifungal MICc ([9]; in combination with 10-ZOL): 64
- antifungal MICc ([9]; in combination with ZOL): 32
- antifungal MICc ([10]; in combination with 10-ZOL): 8
- antifungal MICc ([10]; in combination with ZOL): 16
- MIC [11]: 64 µg/mL (≈ 209 µM)
- antifungal MICc ([13]; in combination with 10-ZOL): 2
- antifungal MICc ([13]; in combination with ZOL): 4
- antifungal MICc ([14]; in combination with 10-ZOL): 8
- antifungal MICc ([15]; in combination with 10-ZOL): 2
- antifungal MICc ([15]; in combination with ZOL): 4
- MIC ([16]; Cryptococcus deuterogattii): 2 µg/mL (≈ 6.53 µM)
- MIC / MEC [16]: 4 µg/mL (≈ 13.1 µM)
- MIC ([17]; Cryptococcus neoformans): 2 µg/mL (≈ 6.53 µM)
- MIC / MEC [17]: 4 µg/mL (≈ 13.1 µM)
- MIC ([18]; Trichophyton rubrum): 64 µg/mL (≈ 209 µM)
- MIC / MEC [18]: 64 µg/mL (≈ 209 µM)
